Assay [1] deals with T1, IDO1 (Homo sapiens, UniProt P14902).
T1 construct: His tag (N); made in house; host or cells: E. coli
The assay can be described thus: IDO enzymatic assay. The following applies: geometric mean; read-out: IDO1 GMean: IC50 (μM) (Biochemical Assay). In kind it is biochemical. The method, then:
(§1) Human IDO or TDO with N-terminal His tag is purified in E. coli. The IDO enzymatic assay is performed using 6 nM IDO and 10 μM L-Trp in the presence of 10 mM ascorbic acid, 5 μM methylene blue, 100 nM catalase and 0.01% Tween 20 in 50 mM sodium phosphate buffer (pH 6.5). 19 μL of above reaction mixture is added to wells of 384 well reaction plate containing 1 μL of various concentrations of test compound or DMSO vehicle and incubated for 20 minutes at room temperature. The TDO enzymatic reaction assay is performed using 1 nM TDO and 350 μM L-Trp in the presence of 10 mM ascorbic acid, 0.4 μM methylene blue, 100 nM catalase and 0.01% Tween 20 in 50 mM sodium phosphate buffer (pH 6.5). 19 μL of above reaction mixture is added to wells of 384 well reaction plate containing 1 μL of various concentrations of test compound or DMSO vehicle and incubated for 70 minutes at room temperature. 16 wells containing all the components of reaction mixture and 5% DMSO serve as high control. 16 well containing all the components except enzyme of reaction mixture and 5% DMSO serves as low control. Both IDO and TDO enzymatic reactions are stopped by addition of 4 μL of 30% TCA and incubated 30 minutes at 50° C. to hydrolyze N-formylkynurenine produced by IDO or TDO to kynurenine. Upon measuring the kynurenine level, the percentage inhibition is calculated at individual concentrations relative to high and low controls. The data is analyzed by using nonlinear regression to generate IC50 values.

The target of assay [2] is T2, TDO (Homo sapiens, UniProt P48775).
T2 construct: His tag (N); made in house; host or cells: E. coli
The assay can be described thus: TDO enzymatic assay. The following applies: geometric mean; read-out: TDO GMean: IC50 (μM) (Biochemical Assay). On the procedure:
as §1

Assay [3] addresses T3, IDO1-expressing HEK293 cell clones (Homo sapiens, UniProt P14902).
T3 construct: expressed in transfected cells; host or cells: HEK293
The assay can be described thus: Cell based kynurenine assay, IDO1-expressing HEK293 cell clones. The following applies: HEK293 cells, 24 hours of incubation, geometric mean; read-out: HEK293 IDO1 Kynurenine GMean IC50 (μM) (Cellular Assay). On the procedure:
(§2) IDO1-expressing or TDO-expressing HEK293 cell clones are generated upon stable transfection of plasmids expressing human IDO or human TDO under the control of CMV promoter. Cells are selected in DMEM media supplemented with 10% fetal bovine serum and 1 mg/ml G418 at 37° C. in a humidified incubator supplied with 5% CO2. The assays are performed as follows.
(§3) Cells were seeded in a 96 well plate in 50 μL of culture media at a density of 2.5×10^4 per well. Serial dilutions of compounds (in total volume of 50 μL culture media) are added into cells. 4 wells containing 0.2% DMSO treated cells serve as high controls and 4 wells containing media only with 0.2% DMSO serve as low controls. After 24 hours of incubation, the supernatant was transferred to a 384 well reaction plate and the kynurenine level determined. The percentage inhibition at individual concentrations relative to high and low controls is calculated. The data is analyzed by using nonlinear regression to generate IC50 values.

For assay [4], the target named is T4, TDO-expressing HEK293 cell clones (Homo sapiens, UniProt P48775).
T4 construct: expressed in transfected cells; host or cells: HEK293
The assay can be described thus: Cell based kynurenine assay, TDO-expressing HEK293 cell clones. The following applies: HEK293 cells, 24 hours of incubation, geometric mean; read-out: HEK293 TDO Kynurenine GMean IC50 (μM) (Cellular Assay). The method, then:
as §2, §3

T4 sequence (P48775 whole entry): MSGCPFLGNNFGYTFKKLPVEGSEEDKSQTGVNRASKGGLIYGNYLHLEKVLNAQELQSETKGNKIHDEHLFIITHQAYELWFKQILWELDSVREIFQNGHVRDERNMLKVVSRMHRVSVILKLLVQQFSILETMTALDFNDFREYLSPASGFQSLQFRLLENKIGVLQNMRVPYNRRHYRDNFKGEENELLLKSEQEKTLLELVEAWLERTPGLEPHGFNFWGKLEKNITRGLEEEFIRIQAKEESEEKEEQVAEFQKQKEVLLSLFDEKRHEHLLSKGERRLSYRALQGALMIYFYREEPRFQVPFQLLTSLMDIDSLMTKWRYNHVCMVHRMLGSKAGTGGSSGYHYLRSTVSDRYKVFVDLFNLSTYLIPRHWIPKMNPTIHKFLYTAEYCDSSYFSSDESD
T2 sequence (P48775 whole entry): as above
T3 sequence (P14902 whole entry): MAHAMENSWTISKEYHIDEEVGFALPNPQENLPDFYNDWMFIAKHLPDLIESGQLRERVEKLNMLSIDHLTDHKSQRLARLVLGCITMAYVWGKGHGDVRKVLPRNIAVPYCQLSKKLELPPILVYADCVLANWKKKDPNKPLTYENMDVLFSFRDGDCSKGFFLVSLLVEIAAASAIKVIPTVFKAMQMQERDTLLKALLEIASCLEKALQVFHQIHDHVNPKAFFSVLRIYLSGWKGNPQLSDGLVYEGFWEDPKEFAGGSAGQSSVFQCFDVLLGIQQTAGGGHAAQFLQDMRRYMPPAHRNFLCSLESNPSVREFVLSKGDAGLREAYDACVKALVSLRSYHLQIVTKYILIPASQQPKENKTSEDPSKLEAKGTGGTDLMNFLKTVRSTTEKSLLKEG
T1 sequence (P14902 whole entry): as above

Regarding `O=C(NCCCF)N1CCC(C(F)(F)C(=O)c2c(F)c(Cl)cc3cn[nH]c23)CC1` [Compound P-0043, 4-(2-(5-chloro-6-fluoro-1H-indazol-7-yl)-1,1-difluoro-2-oxoethyl)-N-(3-fluoropropyl)piperidine-1-carboxamide], the IC50 (usually the concentration at which inhibition is half-maximal) in assay [1] was 0.0001 to 10 µM; in assay [2], 0.0001 to 10 µM; in assay [3] it was 0.0001 to 10 µM; in assay [4] it was over 10 µM.
On to `CC(C)(C1CCN(C(=O)c2cccnc2)CC1)C(O)c1cc(Cl)cc2[nH]ncc12` (stereo not drawn) [Compound P-0044, (4-(1-(6-chloro-1H-indazol-4-yl)-1-hydroxy-2-methylpropan-2-yl)piperidin-1-yl)(pyridin-3-yl)methanone], for which the IC50 in assay [1], in assay [2], in assay [3] and in assay [4] was 0.0001 to 10 µM throughout.
Turning to `CCCC(=O)N1CCC(C(C)(C)C(O)c2cc(Cl)cc3[nH]ncc23)CC1` (stereo not drawn) [Compound P-0045, 1-(4-(1-(6-chloro-1H-indazol-4-yl)-1-hydroxy-2-methylpropan-2-yl)piperidin-1-yl)butan-1-one], the IC50 in assay [1], in assay [2], in assay [3] and in assay [4] was 0.0001 to 10 µM each time.
Turning to `CC(C)(C1CCN(C(=O)C2CC2)CC1)C(O)c1cc(Cl)cc2[nH]ncc12` (stereo not drawn) [Compound P-0046, (4-(1-(6-chloro-1H-indazol-4-yl)-1-hydroxy-2-methylpropan-2-yl)piperidin-1-yl)(cyclopropyl)methanone], the IC50 in assay [1] was 0.0001 to 10 µM; in assay [2] it was 0.0001 to 10 µM; in assay [3], over 10 µM; in assay [4], 0.0001 to 10 µM.
As for `CC(C)(C1CCN(C(=O)CC#N)CC1)C(O)c1cc(Cl)cc2[nH]ncc12` (stereo not drawn) [Compound P-0047, 3-(4-(1-(6-chloro-1H-indazol-4-yl)-1-hydroxy-2-methylpropan-2-yl)piperidin-1-yl)-3-oxopropanenitrile], the IC50 in assay [1], in assay [2], in assay [3] and in assay [4] was 0.0001 to 10 µM each time.
Take `CC(C)(C1CCN(C(=O)C2CCOCC2)CC1)C(O)c1cc(Cl)cc2[nH]ncc12` (stereo not drawn) [Compound P-0048, (4-(1-(6-chloro-1H-indazol-4-yl)-1-hydroxy-2-methylpropan-2-yl)piperidin-1-yl)(tetrahydro-2H-pyran-4-yl)methanone]: the IC50 in assay [1], in assay [2], in assay [3] and in assay [4] was 0.0001 to 10 µM each time.
`COCC(=O)N1CCC(C(C)(C)C(O)c2cc(Cl)cc3[nH]ncc23)CC1` (stereo not drawn) [Compound P-0049, 1-(4-(1-(6-chloro-1H-indazol-4-yl)-1-hydroxy-2-methylpropan-2-yl)piperidin-1-yl)-2-methoxyethan-1-one]: the IC50 in assay [1], in assay [2], in assay [3] and in assay [4] was 0.0001 to 10 µM each time.
With `CC(C)(C1CCN(C(=O)CC2CCOCC2)CC1)C(O)c1cc(Cl)cc2[nH]ncc12` (stereo not drawn) [Compound P-0050, 1-(4-(1-(6-chloro-1H-indazol-4-yl)-1-hydroxy-2-methylpropan-2-yl)piperidin-1-yl)-2-(tetrahydro-2H-pyran-4-yl)ethan-1-one], the IC50 in assay [1], in assay [2], in assay [3] and in assay [4] was 0.0001 to 10 µM each time.
For the compound `CC(C)(C1CCN(C(=O)CC(F)(F)F)CC1)C(O)c1cc(Cl)cc2[nH]ncc12` (stereo not drawn) [Compound P-0051, 1-(4-(1-(6-chloro-1H-indazol-4-yl)-1-hydroxy-2-methylpropan-2-yl)piperidin-1-yl)-3,3,3-trifluoropropan-1-one], the IC50 in assay [1], in assay [2], in assay [3] and in assay [4] was 0.0001 to 10 µM each time.
`CC(C)(C1CCN(C(=O)C2CCC2)CC1)C(O)c1cc(Cl)cc2[nH]ncc12` (stereo not drawn) [Compound P-0052, (4-(1-(6-chloro-1H-indazol-4-yl)-1-hydroxy-2-methylpropan-2-yl)piperidin-1-yl)(cyclobutyl)methanone]: the IC50 in assay [1], in assay [2], in assay [3] and in assay [4] was 0.0001 to 10 µM in each case.
For `CC(C)(C1CCN(C(=O)c2ccc(C(F)(F)F)nc2)CC1)C(O)c1cc(Cl)cc2[nH]ncc12` (stereo not drawn) [Compound P-0053, (4-(1-(6-chloro-1H-indazol-4-yl)-1-hydroxy-2-methylpropan-2-yl)piperidin-1-yl)(6-(trifluoromethyl)pyridin-3-yl)methanone], the IC50 in assay [1], in assay [2], in assay [3] and in assay [4] was 0.0001 to 10 µM in each case.
Regarding `CCN(CC)CC(=O)N1CCC(C(C)(C)[C@H](O)c2cc(Cl)cc3cn[nH]c23)CC1` [Compound P-0058, (S)-1-(4-(1-(5-chloro-1H-indazol-7-yl)-1-hydroxy-2-methylpropan-2-yl)piperidin-1-yl)-2-(diethylamino)ethan-1-one], the IC50 in assay [1], in assay [2], in assay [3] and in assay [4] was 0.0001 to 10 µM each time.
On to `CC(C)(C1CCN(C(=O)CN2CCCC2)CC1)[C@H](O)c1cc(Cl)cc2cn[nH]c12` [Compound P-0059, (S)-1-(4-(1-(5-chloro-1H-indazol-7-yl)-1-hydroxy-2-methylpropan-2-yl)piperidin-1-yl)-2-(pyrrolidin-1-yl)ethan-1-one], for which the IC50 in assay [1], in assay [2], in assay [3] and in assay [4] was 0.0001 to 10 µM throughout.
Regarding `COCCONC(=O)N1CCC(C(C)(C)[C@H](O)c2cc(Cl)cc3cn[nH]c23)CC1` [Compound P-0062, (S)-4-(1-(5-chloro-1H-indazol-7-yl)-1-hydroxy-2-methylpropan-2-yl)-N-(2-methoxyethoxy)piperidine-1-carboxamide], the IC50 in assay [1], in assay [2], in assay [3] and in assay [4] was 0.0001 to 10 µM in each case.
As for `CN(C)CCONC(=O)N1CCC(C(C)(C)[C@H](O)c2cc(Cl)cc3cn[nH]c23)CC1` [Compound P-0063, (S)-4-(1-(5-chloro-1H-indazol-7-yl)-1-hydroxy-2-methylpropan-2-yl)-N-(2-(dimethylamino)ethoxy)piperidine-1-carboxamide], the IC50 in assay [1], in assay [2], in assay [3] and in assay [4] was 0.0001 to 10 µM in each case.
For `CC(C)ONC(=O)N1CCC(C(C)(C)[C@H](O)c2cc(Cl)cc3cn[nH]c23)CC1` [Compound P-0064, (S)-4-(1-(5-chloro-1H-indazol-7-yl)-1-hydroxy-2-methylpropan-2-yl)-N-isopropoxypiperidine-1-carboxamide], the IC50 in assay [1], in assay [2], in assay [3] and in assay [4] was 0.0001 to 10 µM in each case.
Take `CC(C)(C1CCN(C(=O)NOCC(F)(F)F)CC1)[C@H](O)c1cc(Cl)cc2cn[nH]c12` [Compound P-0065, (S)-4-(1-(5-chloro-1H-indazol-7-yl)-1-hydroxy-2-methylpropan-2-yl)-N-(2,2,2-trifluoroethoxy)piperidine-1-carboxamide]: the IC50 in assay [1], in assay [2], in assay [3] and in assay [4] was 0.0001 to 10 µM in each case.
`CC(C)(C1CCN(C(=O)NOc2ccccc2)CC1)[C@H](O)c1cc(Cl)cc2cn[nH]c12` [Compound P-0066, (S)-4-(1-(5-chloro-1H-indazol-7-yl)-1-hydroxy-2-methylpropan-2-yl)-N-phenoxypiperidine-1-carboxamide]: the IC50 in assay [1], in assay [2], in assay [3] and in assay [4] was 0.0001 to 10 µM in each case.

For the origin of these results see patent US11149011B2, “Compounds and methods for IDO and TDO modulation, and indications therefor” (Plexxikon Inc., priority 2018, dated 2021).
